Assays:
[1] = target: T1, Heat shock protein HSP 90-alpha (Homo sapiens, UniProt P07900)
Description: Binding affinity to human HSP90alpha assessed as 2D1H-15N chemical shift perturbation by NMR spectroscopy

[2] = target: T1, Heat shock protein HSP 90-alpha; remark: listed apart in the source
Description: Inhibition of human N-terminal GST-tagged HSP90alpha expressed in Escherichia coli after 1 hr using 10 mM of ATP and malachite green by microplate reader

[3] = target: T1, Heat shock protein HSP 90-alpha; remark: listed apart in the source
Description: Binding affinity to biotinylated N-terminal human HSP90alpha using of streptavidin coated surface by SPR binding assay

Structure (SMILES) | Kd [1] | IC50 [2] | Kd [3]
CSc1nc(N)nc(-c2ccncc2)n1 | > 1 µM |  | 
CSc1nc(N)nc(SCc2ccc(Cl)cc2)n1 | 3.7 µM | 24 µM | 
Nc1ccncn1 | 300 µM |  | 
Oc1ccc2c(c1)CCc1c[nH]nc1-2 |  |  | 0.75 µM
CSc1nc(N)nc(-c2ccccc2)n1 | 51 µM | 31 µM | 
Nc1ncncn1 | 10 µM |  | 

Results, then the compound that gave them:

Kd [1] | IC50 [2] | Kd [3] | Structure (SMILES)
79 µM |  |  | Nc1cnccn1
 | 16 µM |  | CSc1nc(N)nc(SCc2ccccc2)n1
4.5 µM | 0.57 µM |  | CSc1nc(N)nc(-c2ccccc2C)n1
0.33 µM |  |  | Nc1ncc2c(n1)-c1ccoc1CC2
0.34 µM |  |  | CCCc1nc(N)ncc1C(=O)OCC
0.57 µM |  |  | Nc1nccc(-c2nccs2)n1
> 1 µM |  |  | CC(=O)c1cnc(N)nc1C
2.3 µM | 33 µM |  | CSc1nc(N)nc(SCCN2CCOCC2)n1

From ChEMBL document CHEMBL1833897, “Lead generation of heat shock protein 90 inhibitors by a combination of fragment-based approach, virtual screening, and structure-based drug design” (Bioorg Med Chem Lett, 2011)
